Source: US20170253601A1, “Substituted Pyrrolidine Compounds” (EPIZYME, INC., priority 2014, published 2017)

The molecules below were run against T1, human SMYD3 (Homo sapiens, UniProt Q9H7B4) (assay: SMYD3 Biochemical Assay (3H-SAM, MEKK2 protein substrate, SPA)). Details: Table 1; average of n = 1 to n = 50; read-out: SMYD3 Biochem IC50.
T1 construct: Expressed full-length human His-tagged SMYD3 protein was purified from cell paste; His6 (cleaved yes); TEV and SUMO cleavage sites (cleaved yes); made in house; host or cells: E. coli BL21 codonplus RIL
T1 sequence (Q9H7B4 1-428): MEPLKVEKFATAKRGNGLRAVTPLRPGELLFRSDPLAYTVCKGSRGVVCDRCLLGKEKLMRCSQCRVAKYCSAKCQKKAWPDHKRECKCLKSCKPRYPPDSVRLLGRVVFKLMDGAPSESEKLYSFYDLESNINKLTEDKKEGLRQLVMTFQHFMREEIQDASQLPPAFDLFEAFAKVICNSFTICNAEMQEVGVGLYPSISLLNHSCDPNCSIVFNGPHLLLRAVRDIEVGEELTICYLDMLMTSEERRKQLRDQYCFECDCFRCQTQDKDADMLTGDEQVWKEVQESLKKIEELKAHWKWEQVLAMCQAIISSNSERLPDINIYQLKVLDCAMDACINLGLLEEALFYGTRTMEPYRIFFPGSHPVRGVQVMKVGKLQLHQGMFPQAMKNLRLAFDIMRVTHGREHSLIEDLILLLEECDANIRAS
Excerpt: S-adenosylmethionine (SAM), S-adenosylhomocysteine (SAH), Tris, Tween20, dimethylsulfoxide (DMSO), bovine skin gelatin (BSG), and Tris(2-carboxyethyl)phosphine hydrochloride solution (TCEP) were purchased from Sigma-Aldrich at the highest level of purity possible. ^3H-SAM was purchase from American Radiolabeled Chemicals with a specific activity of 80 Ci/mmol. 384-well opaque white OptiPlates and SPA beads (Perkin Elmer, catalog # RPNQ0013) were purchased from PerkinElmer.
N-terminally GST-tagged MEKK2 (MAP3K2) protein corresponding to reference sequence AAF63496.3 was purchased from Life Technologies (catalog # PV4010). This protein was expressed in High Five insect cells and purified to >85% purity. Protein identity was confirmed by MS/MS analysis after proteolytic digestion. The protein sequence used was:
Full-length human SMYD3 isoform 1 (BAB86333) was inserted into a modified pET21b plasmid containing a His6 tag and TEV and SUMO cleavage sites. Because two common variants of SMYD3 exist in the population, site directed mutagenesis was subsequently performed to change amino acid 13 from an asparagine to a lysine, resulting in plasmid pEPZ533. A lysine at position 13 conforms to the more commonly occurring sequence (NP_001161212).
E. coli (BL21 codonplus RIL strain, Stratagene) were transformed with plasmid pEPZ553 by mixing competent cells and plasmid DNA and incubating on ice for 30 minutes followed by heat shock at 42° C. for 1 minute and cooling on ice for 2 minutes. Transformed cells were grown and selected on LB agar with 100 μg/mL ampicillin and 17 μg/mL chloramphenicol at 37° C. overnight. A single clone was used to inoculate 200 mL of LB medium with 100 μg/mL ampicillin and 17 μg/mL chloramphenicol and incubated at 37° C. on an orbital shaker at 180 rpm. Once in log growth, the culture was diluted 1:100 into 2 L of LB medium and grown until OD600 was about 0.3 after which the culture was incubated at 15° C. and 160 rpm. Once OD600 reached about 0.4, IPTG was added to a final concentration of 0.1 mM and the cells were grown overnight at 15° C. and 160 rpm. Cells were harvested by centrifugation at 8000 rpm, for 4 minutes at 4° C. and stored at −80° C. for purification.
Expressed full-length human His-tagged SMYD3 protein was purified from cell paste by Nickel affinity chromatography after equilibration of the resin with Buffer A (25 mM Tris, 200 mM NaCl, 5% glycerol, 5 mM β-mercaptoethanol, pH7.8). The column was washed with Buffer B (Buffer A plus 20 mM imidazole) and His-tagged SMYD3 was eluted with Buffer C (Buffer A plus 300 mM imidazole). The His tag, TEV and SUMO cleavage sites were removed generating native SMYD3 by addition of ULP1 protein at a ratio of 1:200 (ULP1:SMYD3). Imidazole was removed by dialysis overnight in Buffer A. The dialyzed solution was applied to a second Nickel column and the native SMYD3 protein was collected from the column flow-through. The flow-through was dialyzed in Buffer D (25 mM Tris, 5% glycerol, 5 mM β-mercaptoethanol, 50 mM NaCl, pH7.8) and ULP1 was removed using a Q sepharose fast flow column. SMYD3 was eluted in Buffer A and further purified using an S200 size-exclusion column equilibrated with Buffer A. SMYD3 was concentrated to 2 mg/mL with a final purity of 89%.
The assays were all performed in a buffer consisting of 25 mM Tris-Cl pH 8.0, 1 mM TCEP, 0.005% BSG, and 0.005% Tween 20, prepared on the day of use. Compounds in 100% DMSO (1 ul) were spotted into a 384-well white opaque OptiPlate using a Bravo automated liquid handling platform outfitted with a 384-channel head (Agilent Technologies). DMSO (1 ul) was added to Columns 11, 12, 23, 24, rows A-H for the maximum signal control and 1 ul of SAH, a known product and inhibitor of SMYD3, was added to columns 11, 12, 23, 24, rows I-P for the minimum signal control. A cocktail (40 ul) containing the SMYD3 enzyme was added by Multidrop Combi (Thermo-Fisher). […]

Row | IC50 | Compound
1 | 47.1 µM | CC1CC(NC(=O)c2cc(C3CC3)on2)CN1C1CC1 (stereo not shown) [compound 22, 5-cyclopropyl-N-(1-cyclopropyl-5-methylpyrrolidin-3-yl)isoxazole-3-carboxamide]
2 | > 10 µM | N[C@H]1CC[C@H](C(=O)N2CC[C@@H](NC(=O)c3cc(C4CC4)on3)C2)CC1 [compound 31, N-((R)-1-((1r,4r)-4-aminocyclohexane-1-carbonyl)pyrrolidin-3-yl)-5-cyclopropyl-isoxazole-3-carboxamide]
3 | > 10 µM | NCCCC(=O)N1CC[C@H](NC(=O)c2cc(C3CC3)on2)C1 [compound 32, (S)-N-(1-(4-amino-butanoyl)pyrrolidin-3-yl)-5-cyclopropyl-isoxazole-3-carboxamide]
4 | 84 µM | CN1CCC(NC(=O)c2cc(C3CC3)on2)C1 (stereo not shown) [compound 29, 5-cyclopropyl-N-(1-methylpyrrolidin-3-yl)isoxazole-3-carboxamide]
5 | > 100 µM | CC(=O)Nc1ccc(S(=O)(=O)N2CC[C@H](NC(=O)c3cc(C4CC4)on3)C2)cc1 [compound 1, (S)-N-(1-((4-acetamido-phenyl)sulfonyl)pyrrolidin-3-yl)-5-cyclopropyl-isoxazole-3-carboxamide]
6 | 3.25 µM | N[C@H]1CC[C@H](C(=O)N2CC[C@H](NC(=O)c3cc(C4CC4)on3)C2)CC1 [compound 33, N-((S)-1-((1r,4s)-4-aminocyclohexane-1-carbonyl)pyrrolidin-3-yl)-5-cyclopropyl-isoxazole-3-carboxamide]
7 | > 200 µM | Cc1cc(N2CCC(NC(=O)c3cc(C4CC4)on3)C2=O)n(C)n1 (stereo not shown) [compound 6, 5-cyclopropyl-N-(1-(1,3-dimethyl-1H-pyrazol-5-yl)-2-oxopyrrolidin-3-yl)isoxazole-3-carboxamide]
